Reference: patent US8202998B2, “Salts of benzimidazolyl pyridyl ethers and formulations thereof” (Novartis AG, priority 2006, dated 2012)
Each block holds one molecule with its values, some of them ahead of it.

What was measured:
[1] = Stability: degradation products (DP) and appearance (color) under stress conditions; type: physicochemical; set-up: key to CL: A: No change of color; B: Slight discoloration; C: Medium discoloration; D: Strong discoloration; ↓: Suspension; *: Clear solution after stress test; —: no change; x: test not performed
Experimental: Column: Symmetry C18 (Waters), 3.5 μm, 3×150 mm
Mobile phase: A=0.1% TFA in water; B=acetonitrile
Gradient: 20 to 100% B in 10 minutes
Column temperature: 40° C.
Stability of the three salts with respect to color and degradation products were assessed under various conditions.

[2] = Determination of solubility at 25° C.; type: physicochemical; conditions: for solubility: thermodynamic from solid; for Solid: line after Water under Solubility; for Aqueous solubility (in words): summary of Table 8
Experimental: Excess solids were equilibrated in each solvent for over 24 hours at 25° C.±0.1. Concentration in aqueous supernatant was measured by UV and HPLC and concentrations in organic solvents by gravimetry.

[3] = Intrinsic dissolution rate; type: physicochemical; conditions: 37° C.
Experimental: The intrinsic dissolution rate measurements were carried out in 0.5 cm^2 VanKel die assemblies and a pellet pressure of 1 ton. The dissolution was measured using a Cary 50 spectrophotometer with a stirring rate of 200 rpm. The solution medium was held at 37° C. and measurements were made at 276 nm.

[4] = Hygroscopicity (sorption/desorption); type: physicochemical; conditions: for Hygroscopicity: After 1 day at 80% r.h. / Hygroscopicity: After 1 day at 95% r.h.: 25° C.
Experimental: Sorption/desorption isotherms were measured using VTI vapor sorption device (DVS-1). Measurements were carried out at 25° C.

[5] = Polymorphism behavior: crystal modification after 24 hours equilibration; type: physicochemical
Experimental: A suspension of 6 mg of drug substance in 300 μl of solvent is prepared. Samples are agitated for ≧24 hour at 22° C.±2° C. The solids are collected and investigated for changes.

[6] = pH of 1% solution or suspension; type: physicochemical; conditions: In water
[7] = Thermogravimetry / loss on drying; type: physicochemical; conditions: for Loss on drying by TG: As is; for Thermogravimetry (weight loss in %): Heating rate 20 K/min
[8] = Effect of grinding on morphic properties; type: physicochemical
[9] = Aqueous solubility of salts in deionized water; conditions: for solubility / solubility at 48 h: deionized water, water, thermodynamic from solid; for pH: pH of the saturated aqueous solutions
[10] = Bioavailability study of API and salts of API in dogs; type: in vivo, beagle dogs; conditions: single 100 mg oral dose; for AUC(0-inf) / Cmax / half-life / Tmax: beagle, dog, plasma; for AUC(0-inf) / Cmax / half-life / Tmax / Tlag: fasting; for AUC(0-inf) / Cmax / half-life: mean and sd; for Tmax / Tlag: median; for Absolute F: relative to an iv dose of 1.25 mg/kg
Experimental: For comparison, a microemulsion of the free base was also studied. The study was performed with 4 dogs, weighing 9-15 kg each. A crossover design with a washout period of at least 1 week was used. The dogs were given a single oral dose of 100 mg of test compound, administered under fasting conditions.

[11] = 0.1% solutions or suspensions, 1 week 80° C. or 50° C., Methanol
[12] = 0.1% solutions or suspensions, 1 week 80° C. or 50° C., Water
[13] = 1-2 weeks 50° C., tight container, 1% in mixture 1
[14] = 1-2 weeks 50° C., tight container, 1% in mixture 2
[15] = 1-2 weeks 50° C./75% r.h., 1% in mixture 1
[16] = 1-2 weeks 50° C./75% r.h., 1% in mixture 2
[17] = Solid stage, 1 week 80° C., tight container, Bulk (HPLC)
[18] = Solid state, 1 week 80° C./175% r.h, Bulk (HPLC)
[19] = Solid state, 1 week 80° C./, Bulk (HPLC)
[20] = Xenon light (approx. 1200 kLuxh), Bulk (HPLC)
[21] = 0.1N HCl, 25 °C, simulated gastric fluid, read-out: Solubility (approx. at 25° C.) (HPLC)
[22] = acetonitrile, 25 °C, organic solvent or mixture, read-out: Solubility (approx. at 25° C.)
[23] = aqueous medium at pH 3, 25 °C, pH 3, aqueous buffer, read-out: Solubility (approx. at 25° C.) (HPLC)
[24] = aqueous medium at pH 4.5, 25 °C, pH 4.5, aqueous buffer, read-out: Solubility (approx. at 25° C.) (HPLC)
[25] = methanol, 25 °C, organic solvent or mixture, read-out: Solubility (approx. at 25° C.)
[26] = water, 25 °C, water, read-out: Solubility (approx. at 25° C.) (HPLC)

CL [1, 11]: A
DP [1, 11]: 2.5%
DP ([1]; 0.1% solutions or suspensions, 1 week 80° C. or 50° C., Methanol, listed as esylate): 2.7%
CL [1, 12]: A↓
DP [1, 12]: 0.4%
CL [1, 13]: A
DP [1, 13]: 0.5%
CL [1, 14]: A
DP [1, 14]: 0.6%
CL [1, 15]: A
DP [1, 15]: 1.8%
CL [1, 16]: A
DP [1, 16]: 0.8%
CL [1, 17]: A
DP [1, 17]: 0.5%
DP [1, 18]: 0.6%
CL [1, 19]: A
DP ([1]; Unstressed): 0.5%
CL [1, 20]: A
DP [1, 20]: 0.7%
solubility [2, 21]: 3700 µg/mL
solubility [2, 22]: 2100 µg/mL
solubility [2, 23]: 2.3 µg/mL
solubility [2, 24]: 3.7 µg/mL
Solid [2]: No change
solubility [2, 25]: > 50000 µg/mL
Measured pH ([2]; solubility sample in 0.1N HCl): 1.4
solubility [2, 26]: 60 µg/mL
Intrinsic dissolution rate ([3]; HCl 0.1N): 0.06 mg min^−1 cm^−2
Intrinsic dissolution rate ([3]; Water): 0.0036 mg min^−1 cm^−2
Hygroscopicity from moisture sorption profiles (in words) [4]: hygroscopic
Hygroscopicity: After 1 day at 80% r.h. [4]: 5.3
Hygroscopicity: After 1 day at 95% r.h. [4]: 14.9
Crystal modification after 24 hours equilibration (DSC/XRPD/TG) ([5]; 2-propanol): No change
Crystal modification after 24 hours equilibration (DSC/XRPD/TG) ([5]; Acetone): No change
Crystal modification after 24 hours equilibration (DSC/XRPD/TG) ([5]; Acetonitrile): No change
Crystal modification after 24 hours equilibration (DSC/XRPD/TG) ([5]; Ethanol): No change
Crystal modification after 24 hours equilibration (DSC/XRPD/TG) ([5]; Ethyl acetate): No change
Crystal modification after 24 hours equilibration (DSC/XRPD/TG) ([5]; Methanol): No change
Crystal modification after 24 hours equilibration (DSC/XRPD/TG) ([5]; PEG400): No change
Crystal modification after 24 hours equilibration (DSC/XRPD/TG) ([5]; Water): No change
pH of 1% solution or suspension [6]: 2.2
Loss on drying by TG [7]: 2.1%
Thermogravimetry (weight loss in %) [7]: 2.1%
Effect of grinding [8]: No change
SMILES: CCS(=O)(=O)O.Cn1c(Nc2ccc(C(F)(F)F)cc2)nc2cc(Oc3ccnc(-c4ncc(C(F)(F)F)[nH]4)c3)ccc21 [Esylate, {1-methyl-5-[2-(5-trifluoromethyl-1H-imidazol-2-yl)-pyridin-4-yloxy]-1H-benzoimidazol-2-yl}-(4-trifluoromethyl-phenyl)amine ethanesulfonate]
Aqueous solubility (in words) [2]: significantly improves aqueous solubility at all pH levels

solubility [9]: 10 µg/mL
solubility at 48 h [9]: 457 µg/mL
pH [9]: 2.079
SMILES: Cl.Cn1c(Nc2ccc(C(F)(F)F)cc2)nc2cc(Oc3ccnc(-c4ncc(C(F)(F)F)[nH]4)c3)ccc21 [Hydrochloride, {1-methyl-5-[2-(5-trifluoromethyl-1H-imidazol-2-yl)-pyridin-4-yloxy]-1H-benzoimidazol-2-yl}-(4-trifluoromethyl-phenyl)amine hydrochloride]

CL [1, 11]: A
DP [1, 11]: 0.4%
CL [1, 12]: A↓
DP [1, 12]: 0.3%
CL [1, 13]: A
DP [1, 13]: 0.4%
CL [1, 14]: A
DP [1, 14]: 0.4%
CL [1, 15]: A
DP [1, 15]: 1.1%
CL [1, 16]: A
DP [1, 16]: 0.5%
Stability in methanol (in words) ([1]; In methanol): stable
CL [1, 17]: A
DP [1, 17]: 0.7%
DP [1, 18]: 0.4%
CL [1, 19]: A
DP ([1]; Unstressed): 0.3%
CL [1, 20]: A
DP [1, 20]: 0.3%
solubility [2, 21]: 2300 µg/mL
solubility [2, 22]: 4700 µg/mL
solubility [2, 23]: 0.15 µg/mL
solubility [2, 24]: 0.03 µg/mL
Solid [2]: No change
solubility [2, 25]: > 50000 µg/mL
Measured pH ([2]; solubility sample at pH 3): 3.4
Measured pH ([2]; solubility sample in 0.1N HCl): 1.4
solubility [2, 26]: 10 µg/mL
Intrinsic dissolution rate ([3]; HCl 0.1N): 0.03 mg min^−1 cm^−2
Intrinsic dissolution rate ([3]; Water): 0.0076 mg min^−1 cm^−2
Hygroscopicity from moisture sorption profiles (in words) [4]: slightly hygroscopic
Hygroscopicity: After 1 day at 80% r.h. [4]: 0.8
Hygroscopicity: After 1 day at 95% r.h. [4]: 1.1
Crystal modification after 24 hours equilibration (DSC/XRPD/TG) ([5]; 2-propanol): No change
Crystal modification after 24 hours equilibration (DSC/XRPD/TG) ([5]; Acetone): Change
Crystal modification after 24 hours equilibration (DSC/XRPD/TG) ([5]; Acetonitrile): Change
Crystal modification after 24 hours equilibration (DSC/XRPD/TG) ([5]; Ethanol): No change
Crystal modification after 24 hours equilibration (DSC/XRPD/TG) ([5]; Ethyl acetate): Change
Crystal modification after 24 hours equilibration (DSC/XRPD/TG) ([5]; Methanol): Change
Crystal modification after 24 hours equilibration (DSC/XRPD/TG) ([5]; PEG400): Change
Crystal modification after 24 hours equilibration (DSC/XRPD/TG) ([5]; Water): No change
AUC(0-inf) [10]: 29600 ± 5920 ng·h/mL
Cmax [10]: 1220 ± 320 ng/mL
half-life [10]: 18.8 ± 7.7 h
Tmax [10]: 4 h
Tlag [10]: 0.12 h
Absolute F [10]: 12.9 ± 2.6
pH of 1% solution or suspension [6]: 2.7
Loss on drying by TG ([7]; listed as maleate, maleate): 0.1%
Loss on drying by TG ([7]; maleate): 0.11%
Thermogravimetry (weight loss in %) [7]: 0.11%
Effect of grinding [8]: No change
solubility [9]: 17 µg/mL
solubility at 48 h [9]: 96 µg/mL
pH [9]: 2.415
SMILES: Cn1c(Nc2ccc(C(F)(F)F)cc2)nc2cc(Oc3ccnc(-c4ncc(C(F)(F)F)[nH]4)c3)ccc21.O=C(O)/C=C\C(=O)O [Maleate, {1-methyl-5-[2-(5-trifluoromethyl-1H-imidazol-2-yl)-pyridin-4-yloxy]-1H-benzoimidazol-2-yl}-(4-trifluoromethyl-phenyl)amine maleate]
Aqueous solubility (in words) [2]: higher at low pH and lower in neutral conditions

CL [1, 11]: A
DP [1, 11]: 2.7%
CL [1, 12]: A↓
DP [1, 12]: 0.5%
CL [1, 13]: A
DP [1, 13]: 0.5%
CL [1, 14]: A
DP [1, 14]: 0.6%
CL [1, 15]: A
DP [1, 15]: 2%
CL [1, 16]: A
DP [1, 16]: 1.2%
CL [1, 17]: A
DP [1, 17]: 0.5%
DP [1, 18]: 0.8%
CL [1, 19]: A
DP ([1]; Unstressed): 0.5%
CL [1, 20]: A
DP [1, 20]: 0.6%
solubility [2, 21]: 5700 µg/mL
solubility [2, 22]: 4000 µg/mL
solubility [2, 23]: 0.5 µg/mL
solubility [2, 24]: 0.1 µg/mL
Solid [2]: No change
solubility [2, 25]: > 50000 µg/mL
Measured pH ([2]; solubility sample at pH 3): 3.6
Measured pH ([2]; solubility sample in 0.1N HCl): 1.3
solubility [2, 26]: 70 µg/mL
Intrinsic dissolution rate ([3]; HCl 0.1N): 0.056 mg min^−1 cm^−2
Intrinsic dissolution rate ([3]; Water): 0.0024 mg min^−1 cm^−2
Hygroscopicity from moisture sorption profiles (in words) [4]: hygroscopic
Hygroscopicity: After 1 day at 80% r.h. [4]: 4.0
Hygroscopicity: After 1 day at 95% r.h. [4]: 13.0
Crystal modification after 24 hours equilibration (DSC/XRPD/TG) ([5]; 2-propanol): No change
Crystal modification after 24 hours equilibration (DSC/XRPD/TG) ([5]; Acetone): No change
Crystal modification after 24 hours equilibration (DSC/XRPD/TG) ([5]; Acetonitrile): No change
Crystal modification after 24 hours equilibration (DSC/XRPD/TG) ([5]; Ethanol): No change
Crystal modification after 24 hours equilibration (DSC/XRPD/TG) ([5]; Ethyl acetate): No change
Crystal modification after 24 hours equilibration (DSC/XRPD/TG) ([5]; Methanol): No change
Crystal modification after 24 hours equilibration (DSC/XRPD/TG) ([5]; PEG400): No change
Crystal modification after 24 hours equilibration (DSC/XRPD/TG) ([5]; Water): Change
AUC(0-inf) [10]: 54400 ± 14200 ng·h/mL
Cmax [10]: 1570 ± 530 ng/mL
half-life [10]: 21.4 ± 13 h
Tmax [10]: 5 h
Tlag [10]: 0.13 h
Absolute F [10]: 23.7 ± 6.2
pH of 1% solution or suspension [6]: 2.0
Loss on drying by TG [7]: 1.3%
Thermogravimetry (weight loss in %) [7]: 1.3%
Effect of grinding [8]: No change
solubility [9]: 4 µg/mL
solubility at 48 h [9]: 774 µg/mL
pH [9]: 1.992
SMILES: CS(=O)(=O)O.Cn1c(Nc2ccc(C(F)(F)F)cc2)nc2cc(Oc3ccnc(-c4ncc(C(F)(F)F)[nH]4)c3)ccc21 [Mesylate, {1-methyl-5-[2-(5-trifluoromethyl-1H-imidazol-2-yl)-pyridin-4-yloxy]-1H-benzoimidazol-2-yl}-(4-trifluoromethyl-phenyl)amine methanesulfonate]
Aqueous solubility (in words) [2]: significantly improves aqueous solubility at all pH levels
